US20210255193A1, “LYSINE REACTIVE PROBES AND USES THEREOF” (The Scripps Research Institute, priority 2017, published 2021)

Legend:
Experiment in all cases: competitive isoTOP-ABPP
Assay type in all cases: binding
TTR Transthyretin = target: T1, TTR Transthyretin (Homo sapiens, UniProt P02766); details: for isoTOP-ABPP ratio (R) at liganded lysine P02766_K35: 50 uM, in vitro, sol, 231
T1 construct: isoTOP-ABPP experiments performed in cell lysates (in vitro); endogenous in cells; host or cells: MDA-MB-231 soluble lysate
Outline: (§1)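 Cell lysate treated in vitro with fragments (50 μM activated esters, 100 μM guanidinylating agents) or DMSO, labelled 1 h at ambient temperature with 0.1 mM STP-alkyne, CuAAC-tagged with light/heavy TEV tags, analysed by MS. R = DMSO/compound MS1 peak-area ratio; lysines with R≥4 called liganded.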

[1] = target: T2, RPS10 40S ribosomal protein S10 (Homo sapiens, UniProt P46783); details: for isoTOP-ABPP ratio (R) at liganded lysine P46783_K139: 50 uM, in vitro, sol, 231
T2 construct: isoTOP-ABPP experiments performed in cell lysates (in vitro); endogenous in cells; host or cells: soluble proteome of human cancer cell lines (MDA-MB-231; Ramos and Jurkat also prepared)
Outline: as §1

[2] = target: T3, FH Fumarate hydratase, mitochondrial (Homo sapiens, UniProt P07954); details: for isoTOP-ABPP ratio, lysine P07954_K311: 50 uM_231_sol_in vitro
T3 construct: isoTOP-ABPP experiments performed in cell lysates (in vitro); endogenous in cells; host or cells: MDA-MB-231 soluble lysate
T3 sequence (P07954 45-510): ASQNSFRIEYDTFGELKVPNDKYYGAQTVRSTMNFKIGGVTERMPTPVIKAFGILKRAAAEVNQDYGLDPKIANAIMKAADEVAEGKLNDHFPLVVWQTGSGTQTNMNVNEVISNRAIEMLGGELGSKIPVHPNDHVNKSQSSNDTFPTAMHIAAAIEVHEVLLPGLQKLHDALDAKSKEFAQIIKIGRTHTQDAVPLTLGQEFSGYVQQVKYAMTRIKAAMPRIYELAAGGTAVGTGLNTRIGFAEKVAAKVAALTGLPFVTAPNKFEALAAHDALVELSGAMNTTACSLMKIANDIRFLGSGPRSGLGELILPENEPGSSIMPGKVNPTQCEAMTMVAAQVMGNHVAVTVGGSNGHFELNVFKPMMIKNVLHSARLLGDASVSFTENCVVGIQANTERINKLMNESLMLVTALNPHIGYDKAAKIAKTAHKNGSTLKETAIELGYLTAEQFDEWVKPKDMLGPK
Outline: as §1

DTYMK Thymidylate kinase = target: T4, DTYMK Thymidylate kinase (Homo sapiens, UniProt P23919); details: for isoTOP-ABPP ratio, lysine P23919_K118: 50 uM_231_sol_in vitro
T4 construct: isoTOP-ABPP experiments performed in cell lysates (in vitro); endogenous in cells; host or cells: soluble proteome of human cancer cell lines (MDA-MB-231; Ramos and Jurkat also prepared)
T4 sequence (P23919 1-212): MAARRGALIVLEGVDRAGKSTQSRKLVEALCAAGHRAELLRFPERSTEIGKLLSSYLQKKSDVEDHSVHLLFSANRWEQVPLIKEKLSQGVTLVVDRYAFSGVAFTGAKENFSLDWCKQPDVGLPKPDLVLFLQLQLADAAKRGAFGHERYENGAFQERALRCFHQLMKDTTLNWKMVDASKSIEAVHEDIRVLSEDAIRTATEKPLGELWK
Outline: as §1

[3] = target: T5, ERO1L ERO1-like protein alpha (Homo sapiens, UniProt Q96HE7); details: for isoTOP-ABPP ratio, lysine Q96HE7_K413: possible other lysine Q86YB8_K412
T5 construct: isoTOP-ABPP experiments performed in cell lysates (in vitro); endogenous in cells; host or cells: soluble proteome of human cancer cell lines (MDA-MB-231; Ramos and Jurkat also prepared)
T5 sequence (Q96HE7 24-468): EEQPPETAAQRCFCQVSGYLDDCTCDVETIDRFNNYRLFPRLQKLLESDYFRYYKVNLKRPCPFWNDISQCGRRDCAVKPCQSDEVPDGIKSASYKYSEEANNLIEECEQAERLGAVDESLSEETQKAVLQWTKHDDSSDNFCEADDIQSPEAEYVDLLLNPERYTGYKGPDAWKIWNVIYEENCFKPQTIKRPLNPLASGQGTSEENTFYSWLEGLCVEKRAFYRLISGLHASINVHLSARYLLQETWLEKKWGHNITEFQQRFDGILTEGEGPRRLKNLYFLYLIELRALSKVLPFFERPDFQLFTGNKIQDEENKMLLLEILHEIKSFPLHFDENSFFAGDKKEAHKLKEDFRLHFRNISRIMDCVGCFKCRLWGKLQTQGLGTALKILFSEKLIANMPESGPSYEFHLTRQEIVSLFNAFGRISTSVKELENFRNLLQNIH
Outline: as §1

O=C(CCc1coc2cc(F)ccc2c1=O)Oc1ccc([N+](=O)[O-])cc1[N+](=O)[O-] [fragment 36, 2,4-Dinitrophenyl 3-(7-fluoro-4-oxo-4H-chromen-3-yl)propanoate]
isoTOP-ABPP ratio (R) at liganded lysine P02766_K35 (TTR Transthyretin): 2.4
isoTOP-ABPP ratio (R) at liganded lysine P46783_K139 [1]: 0.7

O=C(CC12CC3CC(CC(C3)C1)C2)Oc1ccc([N+](=O)[O-])cc1[N+](=O)[O-] [fragment 38, 2,4-Dinitrophenyl 2-(adamantan-1-yl)acetate]
isoTOP-ABPP ratio (R) at liganded lysine P02766_K35 (TTR Transthyretin): 1.2
isoTOP-ABPP ratio (R) at liganded lysine P46783_K139 [1]: 1.0

O=C(Oc1ccc([N+](=O)[O-])cc1[N+](=O)[O-])c1ccc(Oc2ccccc2)cc1 [fragment 39, 2,4-Dinitrophenyl 4-phenoxybenzoate]
isoTOP-ABPP ratio (R) at liganded lysine P02766_K35 (TTR Transthyretin): 2.2
isoTOP-ABPP ratio (R) at liganded lysine P07954_K311 ([2]; 50 uM, in vitro, sol, 231): 0.9
isoTOP-ABPP ratio (R) at liganded lysine P23919_K118 (DTYMK Thymidylate kinase; 50 uM, in vitro, sol, 231): 0.8

O=C(Oc1ccc([N+](=O)[O-])cc1[N+](=O)[O-])C(c1ccccc1)(c1ccccc1)c1ccccc1 [fragment 42, 2,4-Dinitrophenyl 2,2,2-triphenylacetate]
isoTOP-ABPP ratio (R) at liganded lysine P02766_K35 (TTR Transthyretin): 1.0
isoTOP-ABPP ratio (R) at liganded lysine P46783_K139 [1]: 1.0

CC(=O)Oc1ccc([N+](=O)[O-])cc1[N+](=O)[O-] [fragment 43, 2,4-Dinitrophenyl acetate]
isoTOP-ABPP ratio (R) at liganded lysine Q96HE7_K413 ([3]; 50 uM, in vitro, sol, 231): 2.0

N#Cc1ccc(C(=O)Oc2ccc([N+](=O)[O-])cc2[N+](=O)[O-])cc1 [fragment 44, 2,4-Dinitrophenyl 4-cyanobenzoate]
isoTOP-ABPP ratio, lysine Q96HE7_K413 ([3]; 50 uM_231_sol_in vitro): 1.9
isoTOP-ABPP ratio, lysine P02766_K35 (TTR Transthyretin; 50 uM_231_sol_in vitro): 20.0
isoTOP-ABPP ratio, lysine P46783_K139 ([1]; 50 uM_231_sol_in vitro): 0.6

O=C(CCc1ccc2c(c1)OCO2)Oc1ccc([N+](=O)[O-])cc1[N+](=O)[O-] [fragment 45, 2,4-Dinitrophenyl 3-(benzo[d][1,3]dioxol-5-yl)propanoate]
isoTOP-ABPP ratio, lysine P02766_K35 (TTR Transthyretin; 50 uM_231_sol_in vitro): 2.5
isoTOP-ABPP ratio, lysine P07954_K311 [2]: 1.8

O=C(ON1C(=O)CCC1=O)c1cc(C(F)(F)F)cc(C(F)(F)F)c1 [fragment 46, 3,5-Bis(trifluoromethyl)benzoic acid NHS ester]
isoTOP-ABPP ratio, lysine Q96HE7_K413 ([3]; 50 uM_231_sol_in vitro): 6.5
isoTOP-ABPP ratio, lysine P02766_K35 (TTR Transthyretin; 50 uM_231_sol_in vitro): 2.3

O=C(Oc1c(F)c(F)c(C(F)(F)F)c(F)c1F)c1cc(C(F)(F)F)cc(C(F)(F)F)c1 [fragment 47, 2,3,5,6-Tetrafluoro-4-(trifluoromethyl)phenyl 3,5-bis(trifluoromethyl)benzoate]
isoTOP-ABPP ratio, lysine P02766_K35 (TTR Transthyretin; 50 uM_231_sol_in vitro): 1.6
isoTOP-ABPP ratio, lysine P07954_K311 [2]: 1.4
isoTOP-ABPP ratio, lysine P23919_K118 (DTYMK Thymidylate kinase): 0.9

O=C(Oc1c(F)c(F)cc(F)c1F)c1cc(C(F)(F)F)cc(C(F)(F)F)c1 [fragment 48, 2,3,5,6-Tetrafluorophenyl 3,5-bis(trifluoromethyl)benzoate]
isoTOP-ABPP ratio, lysine P46783_K139 ([1]; 50 uM_231_sol_in vitro): 0.8
isoTOP-ABPP ratio, lysine P23919_K118 (DTYMK Thymidylate kinase): 0.6

COC(=O)NC(=NC(=O)OCC1c2ccccc2-c2ccccc21)n1cccn1 [fragment 49, N-Methoxycarbonyl-N′-9-fluorenylmethoxycarbonyl-pyrazole-1-carboxamidine]
isoTOP-ABPP ratio, lysine P46783_K139 ([1]; 100 uM_231_sol_in vitro): 20.0

CC(C)(C)OC(=O)N=C(NC(=O)OC(C)(C)C)n1cccn1 [fragment 50, reference compound]
isoTOP-ABPP ratio, lysine Q96HE7_K413 ([3]; 100 uM_231_sol_in vitro): 1.4
isoTOP-ABPP ratio, lysine P02766_K35 (TTR Transthyretin; 100 uM_231_sol_in vitro): 2.1
isoTOP-ABPP ratio, lysine P46783_K139 ([1]; 100 uM_231_sol_in vitro): 1.1

NC(=O)c1cc(C(F)(F)F)cc(C(F)(F)F)c1 [fragment 51, reference compound]
isoTOP-ABPP ratio, lysine P07954_K311 [2]: 1.0
